In publication PMC3491834 (EMBO Molecular Medicine, 2012):

Target: InhA, NADH-dependent enoyl-[Acyl-Carrier-Protein] reductase (Mycobacterium tuberculosis, UniProt P9WGR1)
Assay: enzyme turnover, NADH oxidation at […] nm
Format: biochemical

Chain of InhA, NADH-dependent enoyl-[Acyl-Carrier-Protein] reductase (P9WGR1 whole entry, looked up): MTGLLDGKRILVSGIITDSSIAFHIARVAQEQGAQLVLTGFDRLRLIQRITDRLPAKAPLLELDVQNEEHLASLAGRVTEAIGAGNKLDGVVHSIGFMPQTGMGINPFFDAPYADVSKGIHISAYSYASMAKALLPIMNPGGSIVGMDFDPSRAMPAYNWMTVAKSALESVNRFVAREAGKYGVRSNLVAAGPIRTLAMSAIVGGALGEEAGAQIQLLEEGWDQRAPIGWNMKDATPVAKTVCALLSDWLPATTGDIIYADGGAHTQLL

CCCCC/C=C/C(=O)SCCNC(=O)CCNC(=O)[C@H](O)C(C)(C)COP(=O)(O)OP(=O)(O)OC[C@H]1O[C@@H](n2cnc3c(N)ncnc32)[C@H](O)[C@@H]1OP(=O)(O)O [OcCoA, 2-trans-octenoyl-CoA]
enzyme turnover, NADH oxidation at 340 nm: All three enzymes were catalytically active and oxidized NADH in the presence of the substrate 2-trans-octenoyl-CoA (OcCoA)
